Where only a bound is given, the exact number is not on record here.

The subject of one experiment is HER2. The experiment can be described thus: HER2 degradation assay with BT-474 cell line (Example 12, FACS). In kind it is cell-based, human.
Settings: not given
An excerpt:
HER2 has emerged as a key target for anticancer drugs due to its intrinsic involvement in the phosphatidylinositol-3-kinase-Akt/protein kinase B (PI3K-Akt) and the mitogen-activated protein kinase (MAPK) pathways, both of which suppress apoptosis and promote tumor cell survival, gene transcription, angiogenesis, cellular proliferation, migration, mitosis, and differentiation. The degradation of HER2 is a measure of efficacy of anticancer therapeutics that target Hsp90. Accordingly, the SDC-TRAP molecules of the invention that comprise a binding moiety that binds Hsp90 were tested in the following HER2 degradation assay.
BT-474 cells (human breast cancer cell line ATCC HTB-20) were obtained from ATCC and seeded into 12-well tissue culture plates at 0.2×10^6/1.8 mL/well. […] Each test compound was titrated in 4-fold dilutions from 5 μM to 78 nM with DMSO and 200 μL of the titration was added to each well of the cell plate. The DMSO final concentration was 0.2%. Cells were incubated overnight at 37° C. in 5% CO2.
Media was decanted from the plate, cells were washed 1× in PBS. 400 μL trypsin (EDTA) per well was added, and the cells were incubated for 2 to 3 minutes. Cells were collected into FACS tubes containing 1 ml culture medium to neutralize the trypsin and were centrifuged for 5 minutes at 1200 rpm. Supernatant was decanted and the cells were resuspended in 5 μL FITC (anti HER2/nu)/200 μL staining buffer (1×PBS+1% FBS+0.05% Sodium Azide)/tube. Controls were 5 μL IgG isotype control and staining buffer only. Tubes were incubated for 30 minutes in the dark at room temperature. 1 mL staining buffer was added to each tube and the tubes were centrifuged for 6 minutes at 1200 rpm. The supernatant was decanted and 300 μL staining buffer was added to each tube, which was store at 4° C. fpr FACS (cytometer) analysis. The cytometer readout was normalized and the potency of each compound is evaluated with IC50 calculated with XLfit™ software.
Regarding `CCc1c2c(nc3ccc(O)cc13)-c1cc3c(c(=O)n1C2)COC(=O)[C@@]3(CC)OC(=O)N1CCC(COc2ccc(-n3c(O)nnc3-c3cc(C(C)C)c(O)cc3O)cc2)CC1` [SDC-TRAP-0014, (S)-4,11-diethyl-9-hydroxy-3,14-dioxo-3,4,12,14-tetrahydro-1H-pyrano[3,4:6,7]indolizino[1,2-b]quinolin-4-yl 4-((4-(3-(2,4-dihydroxy-5-isopropylphenyl)-5-hydroxy-4H-1,2,4-triazol-4-yl)phenoxy)methyl)piperidine-1-carboxylate], the concentration for half-maximal inhibition (IC50) (usually the point on the concentration scale where inhibition reaches its midpoint) is above 5000 nM.
Take `CCc1c2c(nc3ccc(OC(=O)N4CCN(Cc5cc6cc(-n7c(O)nnc7-c7cc(C(C)C)c(O)cc7O)ccc6n5C)CC4)cc13)-c1cc3c(c(=O)n1C2)COC(=O)C3(O)CC` (stereo not shown) [SDC-TRAP-0073, 4,11-diethyl-4-hydroxy-3,14-dioxo-3,4,12,14-tetrahydro-1H-pyrano[3′,4′:6,7]indolizino[1,2-b]quinolin-9-yl 4-((5-(3-(2,4-dihydroxy-5-isopropylphenyl)-5-hydroxy-4H-1,2,4-triazol-4-yl)-1-methyl-1H-indol-2-yl)methyl)piperazine-1-carboxylate]: 478 nM corresponded to half-maximal inhibition (IC50).
Still for that read-out and setting: the figure for `CCNC(=O)c1nnc(-c2cc(C(C)C)c(O)cc2O)n1-c1ccc(Oc2ccc(C(=O)N(C)CCC(=O)OC3(CC)C(=O)OCc4c3cc3n(c4=O)Cc4c-3nc3ccc(O)cc3c4CC)cc2)cc1` (stereo not shown) [SDC-TRAP-0169, 4,11-diethyl-9-hydroxy-3,14-dioxo-3,4,12,14-tetrahydro-1H-pyrano[3′,4′:6,7]indolizino[1,2-b]quinolin-4-yl 3-(4-(4-(3-(2,4-dihydroxy-5-isopropylphenyl)-5-(ethylcarbamoyl)-4H-1,2,4-triazol-4-yl)phenoxy)-N-methylbenzamido)propanoate] is 611 nM; for `COc1ccc(/C=C\c2cc(OC)c(OC)c(OC)c2)cc1OC(=O)N1CCN(Cc2ccc(-n3c(O)nnc3-c3cc(C(C)C)c(O)cc3O)cc2)CC1` [SDC-TRAP-0085, (Z)-2-methoxy-5-(3,4,5-trimethoxystyryl)phenyl 4-(4-(3-(2,4-dihydroxy-5-isopropylphenyl)-5-hydroxy-4H-1,2,4-triazol-4-yl)benzyl) piperazine-1-carboxylate] it is 889 nM; for `CCc1c2c(nc3ccc(OC(=O)N4CCC(Oc5ccc(-n6c(O)nnc6-c6cc(C(C)C)c(O)cc6O)cc5)CC4)cc13)-c1cc3c(c(=O)n1C2)COC(=O)[C@]3(O)CC` [SDC-TRAP-0011, (S)-4,11-diethyl-4-hydroxy-3,14-dioxo-3,4,12,14-tetrahydro-1H-pyrano[3′,4′:6,7]indolizino[1,2-b]quinolin-9-yl 4-(4-(3-(2,4-dihydroxy-5-isopropylphenyl)-5-hydroxy-4H-1,2,4-triazol-4-yl)phenoxy) piperidine-1-carboxylate] it is above 5000 nM.
As to `CCc1c2c(nc3ccc(O)cc13)-c1cc3c(c(=O)n1C2)COC(=O)C3(CC)OC(=O)N1CCN(c2ccc(-n3c(O)nnc3-c3cc(C(C)C)c(O)cc3O)cc2)CC1` (stereo not shown) [SDC-TRAP-0081, 4,11-diethyl-9-hydroxy-3,14-dioxo-3,4,12,14-tetrahydro-1H-pyrano[3′,4′:6,7]indolizino[1,2-b]quinolin-4-yl-4-(4-(3-(2,4-dihydroxy-5-isopropylphenyl)-5-hydroxy-4H-1,2,4-triazol-4-yl)phenyl)piperazine-1-carboxylate], the IC50 was 622 nM.

Staying with this experiment, now noted: BT-474 cells, overnight.
Molecule `CCOC(=O)c1nnc(-c2cc(C(C)C)c(O)cc2O)n1-c1ccc(CN2CCC(C(=O)N[C@H]3C[C@H](O[C@H]4C[C@](O)(C(=O)CO)Cc5c(O)c6c(c(O)c54)C(=O)c4c(OC)cccc4C6=O)O[C@@H](C)[C@H]3O)CC2)cc1` [SDC-TRAP-0142, ethyl-5-(2,4-dihydroxy-5-isopropylphenyl)-4-(4-((4-(((2S,3S,4S,6R)-3-hydroxy-2-methyl-6-(((1S,3S)-3,5,12-trihydroxy-3-(2-hydroxyacetyl)-10-methoxy-6,11-dioxo-1,2,3,4,6,11-hexahydrotetracen-1-yl)oxy)tetrahydro-2H-pyran-4-yl)carbamoyl)piperidin-1-yl)methyl)phenyl)-4H-1,2,4-triazole-3-carboxylate] showed an IC50 above 10000 nM.

The values above are taken from patent publication US10828315B2 (Madrigal Pharmaceuticals, Inc., priority 2013, dated 2020).
